Results taken from patent publication US20020137725A1, “Use of tagatose in promoting cardiovascular health” (priority 2001, published 2002).

Experiments:
[1] = Pilot study of long term effects of D-tagatose in humans with type-2 diabetes (University of Maryland); format: in vivo; settings: long term treatment; each of the subjects, both the patients (type-2 diabetes) and the controls
Method: U.S. Pat. No. 5,447,917 discloses and claims a method for treating diabetes by administering to a mammal an amount of D-tagatose effective to inhibit the rise in blood sugar associated with the consumption of sugar. A pilot study was conducted at the University of Maryland to investigate the long term effects of D-tagatose in humans with type-2 diabetes.

[2] = Example 1: tagatose given to a human patient with lowered HDL level; format: in vivo; settings: 15 grams with each of three meals per day, after six months
Excerpt: A human patient is diagnosed as having a lowered HDL level than that found in a previous visit. The physician is concerned that this may forecast atherosclerosis, possibly leading to a heart attack, or to a stroke. The physician prescribes that the patient take 15 grams of tagatose with each of three meals per day. […] The physician is satisfied with the improvement and prescribes continued […] doses of tagatose per meal as a means of maintaining and improving the patient's cardiovascular health.

Question: For `O=C(CO)[C@@H](O)[C@@H](O)[C@H](O)CO` [D-tagatose], which HDL-cholesterol levels [1] is on record?
Answer: increase in HDL-cholesterol levels

Question: With `O=C(CO)[C@@H](O)[C@@H](O)[C@H](O)CO` [tagatose] as the compound, how does the “patient's HDL level versus immediately before treatment” value [2] read?
Answer: significantly higher
